Assay results from paper PMC9019904, “AD Informer Set: Chemical tools to facilitate Alzheimer's disease drug discovery” (Alzheimer's & Dementia : Translational Research & Clinical …, 2022).

How the values were obtained:
[1] = system: BV2 (mouse microglia) cell line; experiment: pHrodo-myelin phagocytosis/cell viability high content imaging assay: viability (cell count, nuclear area, nuclear intensity); settings: 48 hours treatment
Procedure, shortened: (§1)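 Duplicate single-point screen at 10 μM over 48 h, combined with pHrodo-myelin phagocytosis during the last 20 h. Cytotoxicity is taken from imaged cell counts and nuclear intensity changes, normalized to untreated wells as % control.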

[2] = system: HMC3 (human microglia) cell line; experiment: as above; settings: 48 hours treatment
Procedure, shortened: as §1

[3] = system: BV2 (mouse microglia) cell line; experiment: pHrodo-myelin phagocytosis/cell viability high content imaging assay: phagocytosis signal; assay type: cell-based
Procedure, shortened: (§2)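 Mouse BV2 and human HMC3 microglia given pHrodo-myelin; phagocytosis and cell viability imaged together by high content imaging about 22 hours after myelin addition. Three measurements extracted, including intensity increase and decrease marking early and later apoptosis.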

[4] = system: HMC3 (human microglia) cell line; experiment: as above; assay type: cell-based
Procedure, shortened: as §2

[5] = BV2 cells, 10 uM compound, 48 hours treatment, pHrodo-myelin final 20 hours
[6] = HMC3 cells, 10 uM compound, 48 hours treatment, pHrodo-myelin final 20 hours
[7] = BV2, compound 10 uM, pHrodo-myelin
[8] = HMC3, compound 10 uM, pHrodo-myelin

Row | Structure (SMILES) | 1. Cell count (% control) ([1]; BV2 cells, 10 uM compound) | 2. Nuclear Area (% Control) ([1]; BV2 cells, 10 uM compound) | 3. Nuclear DNA Intensity (% control) ([1]; BV2 cells, 10 uM compound) | 1. Cell count (% control) ([2]; HMC3 cells, 10 uM compound) | 2. Nuclear Area (% Control) ([2]; HMC3 cells, 10 uM compound) | 3. Nuclear DNA Intensity (% control) ([2]; HMC3 cells, 10 uM compound) | 4. Phagocytosis (% control) [3, 5] [% control] | 4. Phagocytosis (% control) [4, 6] [% control] | 1. Cell count (% control) ([1]; BV2, compound 10 uM) | 2. Nuclear Area (% Control) ([1]; BV2, compound 10 uM) | 3. Nuclear DNA Intensity (% control) ([1]; BV2, compound 10 uM) | 1. Cell count (% control) ([2]; HMC3, compound 10 uM) | 2. Nuclear Area (% Control) ([2]; HMC3, compound 10 uM) | 3. Nuclear DNA Intensity (% control) ([2]; HMC3, compound 10 uM) | 4. Phagocytosis (% control) [3, 7] [% control] | 4. Phagocytosis (% control) [4, 8] [% control]
1 | C=CC(=O)Nc1cc2c(Nc3ccc(F)c(Cl)c3)ncnc2cc1OCCCN1CCOCC1.Cl.Cl [UNC10126563B] | 25.9 | 92.7 | 52.1 | 45.6 | 65.0 | 201.5 | 4.1 | 0.263 |  |  |  |  |  |  |  | 
2 | O=C1C=C(NCCc2cc(Br)c(O)c(Br)c2)C(=O)c2ncccc21 [UNC10303225A] |  |  |  |  |  |  |  |  | 8.3 | 122.7 | 97.1 | 62.3 | 83.0 | 132.4 | 163.7 | 54.3
3 | CC(=O)N1CCC(NC(=O)NC23CC4CC(CC(C4)C2)C3)CC1 [UNC10302683A] | 126.3 | 103.6 | 107.4 | 168.7 | 103.9 | 92.0 | 155.4 | 72.2 |  |  |  |  |  |  |  | 
4 | CCC(=O)O[C@]1(C(=O)SCF)[C@H](C)C[C@H]2[C@@H]3C[C@H](F)C4=CC(=O)C=C[C@]4(C)[C@@]3(F)[C@@H](O)C[C@@]21C [UNC10121416A] | 84.8 | 98.6 | 113.9 | 136.9 | 109.9 | 86.5 | 95.5 | 94.0 |  |  |  |  |  |  |  | 
5 | CN1CCN(CCCN2c3ccccc3Sc3ccc(C(F)(F)F)cc32)CC1.Cl.Cl [UNC10101287D] |  |  |  |  |  |  |  |  | 26.5 | 111.5 | 99.8 | 79.4 | 102.6 | 95.6 | 137.1 | 45.4
6 | C=CC[C@@H]1/C=C(\C)C[C@H](C)C[C@H](OC)[C@H]2O[C@@](O)(C(=O)C(=O)N3CCCC[C@H]3C(=O)O[C@H](/C(C)=C/[C@@H]3CC[C@@H](O)[C@H](OC)C3)[C@H](C)[C@@H](O)CC1=O)[C@H](C)C[C@@H]2OC [UNC10121346A] | 60.9 | 110.1 | 115.2 | 103.0 | 100.5 | 98.5 | 195.2 | 110.2 |  |  |  |  |  |  |  | 
7 | CCCCCOc1cc2c(cc1-c1cc(/C=C/C(=O)O)ccc1O)C(C)(C)CCC2(C)C [UNC10302971A] | 104.0 | 103.5 | 104.7 | 103.0 | 101.2 | 101.8 | 103.8 | 107.7 |  |  |  |  |  |  |  | 
8 | O=C(O)c1cc2nc(-c3ccc(Cl)cc3)cc(C(F)(F)F)n2n1 [UNC10302881A] | 116.3 | 105.9 | 97.1 | 123.0 | 99.8 | 93.1 | 163.1 | 94.6 |  |  |  |  |  |  |  | 
9 | Cc1cnc(Nc2ccc(F)cc2Cl)nc1-c1c[nH]c(C(=O)N[C@H](CO)c2cccc(Cl)c2)c1 [UNC10302866A] | 83.7 | 101.5 | 113.9 | 106.8 | 98.0 | 96.6 | 108.3 | 72.8 |  |  |  |  |  |  |  | 
